pIC50: −log10 of the molar value.
Key:
CT-DNA = assay: DNA cleavage by gel electrophoresis in H2O2 environment; assay type: biochemical, calf thymus; details: DNA + H2O2, Tris-HCl pH 7.4, agarose gel
Experimental: The characteristics were examined of all substances along with DNA containing H2O2 and Tris-HCl buffer solution (pH: 7.4). The tank solution's gel layer was lifted out after the experiment was finished and put in front of a UV transilluminator. Additionally, each band lane was scrutinized with control (DNA + H2O2).
Using the gel electrophoresis method, the DNA nuclease properties for all samples were assessed under the H2O2 environment. The examined DNA nuclease efficacy for all complexes (1a-2a) was contrasted with free ligand (HL) and CT-DNA alone. The raw data for electrophoretic gels and blots were also enclosed in the electronic supplementary file (Figure S15). In Figure 1, no substantial nuclease activity can be seen in the control (lane 1; DNA + H2O2) even after a lot of time has passed and the free ligand (HL) (lane: 2) was monitored as immobile in an H2O2 environment. […] Furthermore, ROS include O2^•−, H2O2, OH^•, ROOH, ROO^•, HOCl, and ^1O2 (singlet oxygen) and ozone (O3), which play essential roles in living systems. Consequently, it has commonly been acknowledged that ROS plays a dual physiological role in controlling a variety of illnesses as well as cellular homeostasis (self-regulating processes such as thermoregulation, blood glucose regulation, calcium/potassium homeostasis, and osmoregulation). […] Additionally, it is widely known that NADPH oxidase generates reactive oxygen species as a portion of its antibacterial effect on phagocytic cells. Nevertheless, these types of enzymes seem to be present in a variety of other cells as well and may have significant signalling pathway functions. When noncarcinogenic toxicity events occur, ROS has the ability to alter cell function as well as affect the genes of cancer at several levels. OH^• can attack DNA, proteins, and lipids due to its high reactivity among ROS. The hydroxyl radical is a key participant in free radical-mediated hazardous reactions because of its great reactivity. The free radicals are also essential for the redox regulation of many cellular signalling pathways and proper cellular functions. […]

[1] = DPPH radical scavenging assay; assay type: biochemical; details: for % Inhibition DPPH: 517 nm
Experimental: All samples were evaluated for their scavenging ability with the help of UV-visible spectrophotometer at different concentrations of 40, 80, 120, 160, 200, and 240 μM [6, 28]. While performing the antioxidant properties for the DPPH, hydroxyl, superoxide, and nitric oxide radical scavenging, the absorbance at 517, 230, 590, and 546 nm, respectively, was closely observed. In addition, the observed IC50 values of all samples were compared with ascorbic acid.
The colour of an aqueous or methanol solution changes from deep purple to pale yellow when DPPH, a stable chromogen free radical, combines with an antioxidant molecule, which means that DPPH quickly absorbs the hydrogen or electrons from the donor groups. In this case, for the baseline correction, a blank DPPH solution in the absence of a test compound was employed, and 517 nm (ε = 8320 M^−1·cm^−1) was attained to have a significant absorption maximum. […] The DPPH radicals are reduced by an antioxidant compound (AH), in which the reduction of electronic absorbance for each compound was vigilantly noted at 517 nm. The capacity to block radicals improves as the sample concentration increases. The assessed percentage of maximum inhibition for all substances was found at 240 μM in the subsequent order: (ascorbic acid) (85.65) > (1a) 68.64 > (2a) 59.55 > (HL) 52.45. […] Moreover, the % of scavenging or maximum inhibition for all substances is estimated with the aid of equation (44) (Table S14).(43) Scavanging%=A0−AS/A0×100

Compound	DNA cleavage (nuclease activity) (CT-DNA)	% Inhibition DPPH ([1]; 40 µM)	% Inhibition DPPH ([1]; 80 µM)	% Inhibition DPPH ([1]; 120 µM)	% Inhibition DPPH ([1]; 160 µM)	% Inhibition DPPH ([1]; 200 µM)	% Inhibition DPPH ([1]; 240 µM)	pIC50 [1]
Oc1ccccc1N=Cc1ccc(N2CCOCC2)cc1 [(HL), 2-(4-morpholinobenzylideneamino)phenol]	immobile	09.45%	15.21%	26.36%	34.56%	39.41%	52.45%	
[Cu+2].[O-]c1ccccc1N=Cc1ccc(N2CCOCC2)cc1.[O-]c1ccccc1N=Cc1ccc(N2CCOCC2)cc1.c1ccc(-c2ccccn2)nc1 [(1a), [Cu(L)2(bpy)]]	complete DNA cleavage	17.53%	30.62%	35.74%	51.72%	57.95%	68.64%	3.80
[O-]c1ccccc1N=Cc1ccc(N2CCOCC2)cc1.[O-]c1ccccc1N=Cc1ccc(N2CCOCC2)cc1.[Zn+2].c1ccc(-c2ccccn2)nc1 [(2a), [Zn(L)2(bpy)]]	partially cleaves DNA	12.75%	24.73%	30.02%	39.68%	48.79%	59.55%	
